# ChEMBL document CHEMBL1135773, “Purine and pyrimidine (P2) receptors as drug targets” (J Med Chem, 2002)
# Experiments:
# P2Y purinoceptor 1 = P2Y purinoceptor 1 (Meleagris gallopavo, UniProt P49652); test: Evaluated for agonist activity against phospholipase C coupled P2Y purinoceptor 1 (P2Y1) of turkey erythrocytes; format: functional
# P2X purinoceptor 2 [1] = molecular target: T1, P2X purinoceptor 2 (Rattus norvegicus, UniProt P49653); test: The compound was evaluated for antagonist activity against recombinant rat receptor P2X purinoceptor 2 (P2X2) at 10 uM, expressed in Xenopus oocytes; format: functional, cell-based, Oocyte
# T1 sequence (P49653 whole entry): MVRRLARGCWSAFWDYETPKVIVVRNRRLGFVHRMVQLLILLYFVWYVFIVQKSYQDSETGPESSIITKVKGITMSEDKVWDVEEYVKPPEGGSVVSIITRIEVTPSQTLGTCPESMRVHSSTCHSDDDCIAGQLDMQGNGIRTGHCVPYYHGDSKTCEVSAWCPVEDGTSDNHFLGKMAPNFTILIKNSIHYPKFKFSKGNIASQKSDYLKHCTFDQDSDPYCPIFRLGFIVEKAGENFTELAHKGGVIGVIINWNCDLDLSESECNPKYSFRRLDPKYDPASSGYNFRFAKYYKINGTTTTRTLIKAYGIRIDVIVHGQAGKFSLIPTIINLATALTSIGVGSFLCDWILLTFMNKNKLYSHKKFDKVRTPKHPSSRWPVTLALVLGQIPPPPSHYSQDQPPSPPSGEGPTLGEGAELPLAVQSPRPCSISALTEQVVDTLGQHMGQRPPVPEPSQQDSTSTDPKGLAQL
# P2X purinoceptor 4 [2] = molecular target: T2, P2X purinoceptor 4 (Homo sapiens, UniProt Q99571); test: Antagonist activity against recombinant human P2X purinoceptor 4 (P2X4); format: functional
# T2 sequence (Q99571 whole entry): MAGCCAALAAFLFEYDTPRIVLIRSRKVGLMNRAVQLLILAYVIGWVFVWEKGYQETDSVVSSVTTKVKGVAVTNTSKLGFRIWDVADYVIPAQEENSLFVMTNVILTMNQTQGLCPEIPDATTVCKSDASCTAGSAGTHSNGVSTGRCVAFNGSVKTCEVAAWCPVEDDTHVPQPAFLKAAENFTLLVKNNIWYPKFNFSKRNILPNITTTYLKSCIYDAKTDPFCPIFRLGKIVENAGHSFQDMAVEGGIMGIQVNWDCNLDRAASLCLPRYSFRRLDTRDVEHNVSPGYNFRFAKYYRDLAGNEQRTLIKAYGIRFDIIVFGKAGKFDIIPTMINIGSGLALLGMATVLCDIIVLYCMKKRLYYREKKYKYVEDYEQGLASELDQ
# P2X purinoceptor 4 [3] = molecular target: T3, P2X purinoceptor 4 (Rattus norvegicus, UniProt P51577); test: Antagonist activity against recombinant rat P2X purinoceptor 4 (P2X4) at 30 uM, expressed in Xenopus oocytes; format: functional, cell-based, Oocyte
# T3 sequence (P51577 whole entry): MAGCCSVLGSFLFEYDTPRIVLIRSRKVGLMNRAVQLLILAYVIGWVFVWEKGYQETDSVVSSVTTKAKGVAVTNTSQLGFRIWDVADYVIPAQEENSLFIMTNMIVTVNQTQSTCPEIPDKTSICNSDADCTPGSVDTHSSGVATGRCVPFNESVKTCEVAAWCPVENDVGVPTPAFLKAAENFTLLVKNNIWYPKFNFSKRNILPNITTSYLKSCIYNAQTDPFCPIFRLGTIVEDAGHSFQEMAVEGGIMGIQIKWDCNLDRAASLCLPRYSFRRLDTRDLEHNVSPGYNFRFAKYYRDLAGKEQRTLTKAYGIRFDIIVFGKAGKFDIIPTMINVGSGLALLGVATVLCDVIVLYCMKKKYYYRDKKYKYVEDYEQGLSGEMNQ
# P2X purinoceptor 5 = molecular target: T4, P2X purinoceptor 5 (Rattus norvegicus, UniProt P51578); test: Antagonist activity against recombinant rat P2X purinoceptor 5 (P2X5); format: functional
# T4 sequence (P51578 whole entry): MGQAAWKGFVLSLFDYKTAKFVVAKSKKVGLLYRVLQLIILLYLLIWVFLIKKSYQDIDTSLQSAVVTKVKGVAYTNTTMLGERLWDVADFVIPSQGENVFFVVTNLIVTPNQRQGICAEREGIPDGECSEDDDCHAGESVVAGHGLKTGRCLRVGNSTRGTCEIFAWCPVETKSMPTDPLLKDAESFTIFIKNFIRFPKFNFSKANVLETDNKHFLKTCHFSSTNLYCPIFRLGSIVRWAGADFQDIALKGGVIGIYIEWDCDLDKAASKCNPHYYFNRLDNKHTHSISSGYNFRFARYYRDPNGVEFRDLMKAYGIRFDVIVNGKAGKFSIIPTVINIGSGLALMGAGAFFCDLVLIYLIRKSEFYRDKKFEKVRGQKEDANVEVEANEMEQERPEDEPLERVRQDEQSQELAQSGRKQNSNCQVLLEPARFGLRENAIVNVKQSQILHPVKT
# P2X purinoceptor 6 = P2X purinoceptor 6 (Rattus norvegicus, UniProt P51579); test: Antagonist activity against recombinant rat P2X purinoceptor 6 (P2X6 ); format: functional
# P2X purinoceptor 2 [4] = molecular target: T1, P2X purinoceptor 2; test: Antagonist activity against recombinant rat receptor P2X purinoceptor 2 (P2X2) at 10 uM, expressed in Xenopus oocytes; format: functional, cell-based, Oocyte
# P2Y purinoceptor 2 [5] = molecular target: T5, P2Y purinoceptor 2 (Homo sapiens, UniProt P41231); test: Evaluated for agonist activity against phospholipase C coupled recombinant human P2Y purinoceptor 2 (P2Y2); format: functional
# P2X purinoceptor 3 = molecular target: T6, P2X purinoceptor 3 (Homo sapiens, UniProt P56373); test: Antagonist activity against recombinant human P2X purinoceptor 3 (P2X3 ); format: functional
# T6 sequence (P56373 whole entry): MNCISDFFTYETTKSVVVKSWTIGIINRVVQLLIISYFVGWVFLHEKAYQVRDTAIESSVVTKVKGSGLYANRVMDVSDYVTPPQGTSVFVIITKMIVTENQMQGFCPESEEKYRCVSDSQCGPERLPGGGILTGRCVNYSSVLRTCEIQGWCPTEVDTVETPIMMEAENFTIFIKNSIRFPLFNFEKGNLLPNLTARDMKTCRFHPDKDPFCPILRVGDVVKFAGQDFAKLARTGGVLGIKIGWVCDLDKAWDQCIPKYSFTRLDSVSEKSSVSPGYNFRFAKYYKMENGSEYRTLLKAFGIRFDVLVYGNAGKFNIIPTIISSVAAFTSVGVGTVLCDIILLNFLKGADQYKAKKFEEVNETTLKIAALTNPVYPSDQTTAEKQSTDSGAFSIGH
# P2X purinoceptor 7 = molecular target: T7, P2X purinoceptor 7 (Homo sapiens, UniProt Q99572); test: Antagonist activity against recombinant human P2X purinoceptor 7 (P2X7); format: functional
# T7 sequence (Q99572 whole entry): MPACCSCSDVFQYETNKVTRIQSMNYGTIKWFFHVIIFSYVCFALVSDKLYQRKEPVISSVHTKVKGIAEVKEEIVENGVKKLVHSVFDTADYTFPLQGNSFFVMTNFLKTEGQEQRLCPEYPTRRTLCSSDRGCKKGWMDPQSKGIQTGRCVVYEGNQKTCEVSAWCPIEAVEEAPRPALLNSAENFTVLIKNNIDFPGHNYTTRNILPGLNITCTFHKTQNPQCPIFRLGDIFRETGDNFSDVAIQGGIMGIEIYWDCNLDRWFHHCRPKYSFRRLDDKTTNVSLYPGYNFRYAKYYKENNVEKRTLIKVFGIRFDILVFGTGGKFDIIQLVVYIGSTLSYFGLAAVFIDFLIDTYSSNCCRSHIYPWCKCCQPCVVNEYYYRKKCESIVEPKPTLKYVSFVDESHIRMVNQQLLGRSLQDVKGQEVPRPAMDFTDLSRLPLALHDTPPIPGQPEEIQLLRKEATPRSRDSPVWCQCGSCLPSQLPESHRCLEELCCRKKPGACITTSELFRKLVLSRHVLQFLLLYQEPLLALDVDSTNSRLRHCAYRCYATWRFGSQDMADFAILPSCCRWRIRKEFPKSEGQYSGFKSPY
# P2Y purinoceptor 12 = P2Y purinoceptor 12 (Rattus norvegicus, UniProt Q9EPX4); test: Antagonist activity against phospholipase C coupled rat P2Y purinoceptor 12 (P2Y12); format: functional
# P2Y purinoceptor 4 [6] = molecular target: P2Y purinoceptor 4 (Homo sapiens, UniProt P51582); test: The compound was evaluated for antagonist activity against phospholipase C coupled recombinant human P2Y purinoceptor 4 (P2Y4); format: functional
# P2Y purinoceptor 4 [7] = molecular target: P2Y purinoceptor 4 (Rattus norvegicus, UniProt O35811); test: The compound was evaluated for agonist activity against phospholipase C coupled recombinant rat P2Y purinoceptor 4 (P2Y4); format: functional
# P2Y purinoceptor 6 = P2Y purinoceptor 6 (Homo sapiens, UniProt Q15077); test: The compound was evaluated for agonist activity against phospholipase C coupled recombinant human P2Y purinoceptor 6 (P2Y6); format: functional
# P2X purinoceptor 1 = molecular target: T8, P2X purinoceptor 1 (Homo sapiens, UniProt P51575); test: Antagonist activity against recombinant human P2X purinoceptor 1 (P2X1 ); format: functional
# T8 sequence (P51575 whole entry): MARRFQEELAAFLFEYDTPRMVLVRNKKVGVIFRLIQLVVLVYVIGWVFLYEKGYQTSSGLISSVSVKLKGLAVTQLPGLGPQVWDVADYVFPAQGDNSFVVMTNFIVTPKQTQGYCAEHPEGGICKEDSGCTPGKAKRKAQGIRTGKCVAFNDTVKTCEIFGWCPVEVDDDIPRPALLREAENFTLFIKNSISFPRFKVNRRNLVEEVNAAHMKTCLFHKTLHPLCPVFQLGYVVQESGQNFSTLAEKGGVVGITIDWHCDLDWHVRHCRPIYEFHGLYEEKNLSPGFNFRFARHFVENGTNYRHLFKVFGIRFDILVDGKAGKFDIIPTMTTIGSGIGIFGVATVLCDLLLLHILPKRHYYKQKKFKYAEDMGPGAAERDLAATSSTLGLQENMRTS
# P2Y purinoceptor 2 [8] = molecular target: T5, P2Y purinoceptor 2; test: The compound was evaluated for antagonistic activity against P2Y purinoceptor 2 (P2Y2); format: functional
# [9] = The compound was evaluated for antagonist activity against P2X purinoceptor; format: functional
# T5 sequence (P41231 whole entry): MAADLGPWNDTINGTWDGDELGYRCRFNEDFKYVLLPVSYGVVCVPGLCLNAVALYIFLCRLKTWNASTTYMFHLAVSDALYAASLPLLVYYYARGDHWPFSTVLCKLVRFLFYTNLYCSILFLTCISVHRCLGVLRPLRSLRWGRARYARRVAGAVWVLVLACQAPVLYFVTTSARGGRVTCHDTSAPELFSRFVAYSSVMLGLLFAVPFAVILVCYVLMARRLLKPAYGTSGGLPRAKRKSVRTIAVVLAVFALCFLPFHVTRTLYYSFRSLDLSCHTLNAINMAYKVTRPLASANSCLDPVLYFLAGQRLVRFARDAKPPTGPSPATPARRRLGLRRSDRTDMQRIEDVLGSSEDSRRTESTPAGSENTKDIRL
# Chain of P2Y purinoceptor 1 (P49652 whole entry): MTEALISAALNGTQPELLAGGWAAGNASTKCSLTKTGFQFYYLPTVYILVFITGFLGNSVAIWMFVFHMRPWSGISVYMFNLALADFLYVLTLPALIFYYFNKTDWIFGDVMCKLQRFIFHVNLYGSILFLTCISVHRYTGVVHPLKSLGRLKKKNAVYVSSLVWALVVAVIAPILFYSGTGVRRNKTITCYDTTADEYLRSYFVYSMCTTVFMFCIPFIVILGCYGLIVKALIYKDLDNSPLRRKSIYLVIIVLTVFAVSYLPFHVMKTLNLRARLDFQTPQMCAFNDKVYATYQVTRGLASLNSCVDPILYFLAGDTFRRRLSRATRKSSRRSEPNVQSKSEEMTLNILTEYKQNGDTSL
# Chain of P2Y purinoceptor 12 (Q9EPX4 whole entry): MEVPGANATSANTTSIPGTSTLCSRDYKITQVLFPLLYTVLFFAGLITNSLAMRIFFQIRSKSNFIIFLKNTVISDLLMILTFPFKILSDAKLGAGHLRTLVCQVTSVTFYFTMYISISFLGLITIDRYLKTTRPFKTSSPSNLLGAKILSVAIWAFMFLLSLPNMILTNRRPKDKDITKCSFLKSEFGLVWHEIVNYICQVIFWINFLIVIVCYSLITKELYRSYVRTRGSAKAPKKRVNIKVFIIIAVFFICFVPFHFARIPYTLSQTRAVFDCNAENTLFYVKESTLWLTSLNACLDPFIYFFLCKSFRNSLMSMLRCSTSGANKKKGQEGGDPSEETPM
# Chain of P2Y purinoceptor 6 (Q15077 whole entry): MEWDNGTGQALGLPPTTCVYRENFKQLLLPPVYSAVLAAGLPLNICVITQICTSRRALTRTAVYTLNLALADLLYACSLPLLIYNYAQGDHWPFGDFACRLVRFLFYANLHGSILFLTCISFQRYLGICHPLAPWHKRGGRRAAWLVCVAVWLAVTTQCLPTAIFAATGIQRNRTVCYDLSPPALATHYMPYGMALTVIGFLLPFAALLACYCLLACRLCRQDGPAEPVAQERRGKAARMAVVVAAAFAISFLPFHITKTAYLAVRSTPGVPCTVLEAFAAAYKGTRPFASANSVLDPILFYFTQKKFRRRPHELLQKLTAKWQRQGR
# Chain of P2Y purinoceptor 4 (Rattus norvegicus, UniProt O35811) (O35811 whole entry): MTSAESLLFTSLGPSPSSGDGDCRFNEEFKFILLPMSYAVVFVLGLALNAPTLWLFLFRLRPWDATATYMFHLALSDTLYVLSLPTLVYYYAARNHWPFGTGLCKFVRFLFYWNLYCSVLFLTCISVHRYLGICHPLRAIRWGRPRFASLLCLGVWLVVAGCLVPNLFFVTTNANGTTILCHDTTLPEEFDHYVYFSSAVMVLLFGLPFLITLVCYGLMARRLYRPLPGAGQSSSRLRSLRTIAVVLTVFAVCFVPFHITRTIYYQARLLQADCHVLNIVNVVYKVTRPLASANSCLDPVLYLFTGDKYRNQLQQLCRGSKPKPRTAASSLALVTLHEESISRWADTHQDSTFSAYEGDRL
# Chain of P2X purinoceptor 6 (P51579 whole entry): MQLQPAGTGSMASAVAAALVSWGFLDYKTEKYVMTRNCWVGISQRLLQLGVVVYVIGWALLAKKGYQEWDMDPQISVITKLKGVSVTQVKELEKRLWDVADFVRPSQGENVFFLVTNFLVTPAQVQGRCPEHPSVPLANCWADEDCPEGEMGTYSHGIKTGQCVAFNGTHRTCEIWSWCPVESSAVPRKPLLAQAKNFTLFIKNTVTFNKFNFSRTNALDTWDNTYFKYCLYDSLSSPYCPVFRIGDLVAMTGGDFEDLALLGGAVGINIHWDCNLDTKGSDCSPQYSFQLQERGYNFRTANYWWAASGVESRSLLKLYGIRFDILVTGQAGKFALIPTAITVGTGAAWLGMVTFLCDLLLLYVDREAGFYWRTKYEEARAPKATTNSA
# Chain of P2Y purinoceptor 4 (Homo sapiens, UniProt P51582) (P51582 whole entry): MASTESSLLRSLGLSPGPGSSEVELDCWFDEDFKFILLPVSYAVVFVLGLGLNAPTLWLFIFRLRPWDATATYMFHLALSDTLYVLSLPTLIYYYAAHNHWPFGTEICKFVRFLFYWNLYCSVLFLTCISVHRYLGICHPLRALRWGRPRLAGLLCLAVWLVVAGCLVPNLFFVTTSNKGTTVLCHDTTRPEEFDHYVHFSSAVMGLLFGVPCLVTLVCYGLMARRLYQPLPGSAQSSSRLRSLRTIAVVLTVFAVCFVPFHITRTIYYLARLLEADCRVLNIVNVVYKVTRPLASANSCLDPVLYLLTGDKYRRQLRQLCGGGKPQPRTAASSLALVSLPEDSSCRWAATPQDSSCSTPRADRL
smiles,measurement,setting,value
Cc1nc(/N=N/c2cc(S(=O)(=O)O)ccc2Cl)c(COP(=O)(O)O)c(C=O)c1O,EC50,P2Y purinoceptor 1,0.0044 µM
same,EC50,P2X purinoceptor 2 [1],0.0011 µM
Nc1ncnc2c1ncn2[C@@H]1O[C@H](COP(=O)(O)OP(=O)(O)OP(=O)(O)O)[C@@H](O)[C@H]1O [ADENOSINE TRIPHOSPHATE],EC50,P2X purinoceptor 4 [2],0.5 µM
same,EC50,P2X purinoceptor 4 [3],1 µM
same,EC50,P2X purinoceptor 5,1 µM
same,EC50,P2X purinoceptor 6,1 µM
same,EC50,P2X purinoceptor 2 [4],1.4 µM
same,EC50,P2Y purinoceptor 2 [5],0.23 µM
same,EC50,P2X purinoceptor 3,0.34 µM
same,EC50,P2X purinoceptor 7,780 µM
same,EC50,P2Y purinoceptor 12,3.19 µM
same,EC50,P2Y purinoceptor 4 [6],43 µM
same,EC50,P2Y purinoceptor 4 [7],1.8 µM
same,EC50,P2Y purinoceptor 6,> 100 µM
same,EC50,P2X purinoceptor 1,0.056 µM
Cc1cc(-c2ccc(/N=N/c3c(S(=O)(=O)O)cc4cc(S(=O)(=O)O)cc(N)c4c3O)c(C)c2)ccc1/N=N/c1c(S(=O)(=O)O)cc2cc(S(=O)(=O)O)cc(N)c2c1O [TRYPAN BLUE],IC50,P2Y purinoceptor 2 [8],171 µM
same,IC50,[9],386 µM
